Experimental data: ChEMBL document CHEMBL3991601, “The target landscape of clinical kinase drugs” (Science, 2017)
The source made the active and inactive calls. For most assays here, no stated cut-off is given here; in the data, actives have a measured Kd and inactives only a lower limit.

target: T1, Activin receptor type-1 (Homo sapiens, UniProt Q04771)
T1 sequence (Q04771 whole entry): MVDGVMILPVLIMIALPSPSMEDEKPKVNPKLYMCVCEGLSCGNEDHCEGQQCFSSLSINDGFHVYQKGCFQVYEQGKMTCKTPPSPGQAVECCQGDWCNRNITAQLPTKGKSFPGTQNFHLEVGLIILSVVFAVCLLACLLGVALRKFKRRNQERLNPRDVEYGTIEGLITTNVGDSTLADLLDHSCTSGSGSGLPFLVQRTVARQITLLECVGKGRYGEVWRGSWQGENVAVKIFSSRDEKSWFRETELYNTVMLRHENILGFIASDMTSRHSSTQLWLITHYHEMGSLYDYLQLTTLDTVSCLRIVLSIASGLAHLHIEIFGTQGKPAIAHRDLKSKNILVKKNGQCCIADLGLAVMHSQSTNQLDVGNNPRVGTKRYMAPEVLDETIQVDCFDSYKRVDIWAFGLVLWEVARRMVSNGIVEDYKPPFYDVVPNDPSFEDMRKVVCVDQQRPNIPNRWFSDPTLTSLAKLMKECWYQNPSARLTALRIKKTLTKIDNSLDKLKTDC

SMILES	Kd
COC(=O)[C@@]1(O)C[C@H]2O[C@]1(C)n1c3ccccc3c3c4c(c5c6ccccc6n2c5c31)C(=O)NC4 [K-252A]	> 30 µM (inactive)
Cc1c(F)cc(C(=O)NC2CC2)cc1-c1ccc(C(=O)NCC(C)(C)C)cn1 [LOSMAPIMOD]	> 30 µM (inactive)
Cn1cc(-c2ccc(F)c(C(F)(F)F)c2)nc1C1CCN(c2ncnc3[nH]ncc23)CC1 [LY-2584702]	> 30 µM (inactive)

target: T2, cGMP-dependent protein kinase 1 (Homo sapiens, UniProt Q13976)
T2 sequence (Q13976 whole entry): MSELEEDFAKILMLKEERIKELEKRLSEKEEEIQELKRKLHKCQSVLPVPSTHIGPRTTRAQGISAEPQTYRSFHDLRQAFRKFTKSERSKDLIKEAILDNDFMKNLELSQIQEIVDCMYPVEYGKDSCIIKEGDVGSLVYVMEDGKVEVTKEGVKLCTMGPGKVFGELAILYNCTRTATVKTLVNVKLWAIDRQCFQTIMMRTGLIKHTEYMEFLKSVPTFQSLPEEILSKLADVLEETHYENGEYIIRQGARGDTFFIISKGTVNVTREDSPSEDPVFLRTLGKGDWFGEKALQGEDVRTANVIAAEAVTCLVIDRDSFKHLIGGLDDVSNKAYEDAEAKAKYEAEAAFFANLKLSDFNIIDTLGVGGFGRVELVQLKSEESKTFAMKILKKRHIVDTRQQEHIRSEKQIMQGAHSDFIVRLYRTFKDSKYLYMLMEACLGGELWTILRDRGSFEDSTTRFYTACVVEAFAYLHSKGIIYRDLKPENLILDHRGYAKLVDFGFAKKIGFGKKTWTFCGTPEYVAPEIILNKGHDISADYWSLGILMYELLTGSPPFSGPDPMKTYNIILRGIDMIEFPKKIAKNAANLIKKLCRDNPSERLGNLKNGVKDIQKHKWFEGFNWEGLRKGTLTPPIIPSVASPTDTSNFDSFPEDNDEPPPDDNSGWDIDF

SMILES	Kd
COC(=O)[C@@]1(O)C[C@H]2O[C@]1(C)n1c3ccccc3c3c4c(c5c6ccccc6n2c5c31)C(=O)NC4 [K-252A]	> 30 µM (inactive)
Cc1c(F)cc(C(=O)NC2CC2)cc1-c1ccc(C(=O)NCC(C)(C)C)cn1 [LOSMAPIMOD]	> 30 µM (inactive)
Cn1cc(-c2ccc(F)c(C(F)(F)F)c2)nc1C1CCN(c2ncnc3[nH]ncc23)CC1 [LY-2584702]	> 30 µM (inactive)

target: T3, Interleukin-1 receptor-associated kinase 4 (Homo sapiens, UniProt Q9NWZ3)
T3 sequence (Q9NWZ3 whole entry): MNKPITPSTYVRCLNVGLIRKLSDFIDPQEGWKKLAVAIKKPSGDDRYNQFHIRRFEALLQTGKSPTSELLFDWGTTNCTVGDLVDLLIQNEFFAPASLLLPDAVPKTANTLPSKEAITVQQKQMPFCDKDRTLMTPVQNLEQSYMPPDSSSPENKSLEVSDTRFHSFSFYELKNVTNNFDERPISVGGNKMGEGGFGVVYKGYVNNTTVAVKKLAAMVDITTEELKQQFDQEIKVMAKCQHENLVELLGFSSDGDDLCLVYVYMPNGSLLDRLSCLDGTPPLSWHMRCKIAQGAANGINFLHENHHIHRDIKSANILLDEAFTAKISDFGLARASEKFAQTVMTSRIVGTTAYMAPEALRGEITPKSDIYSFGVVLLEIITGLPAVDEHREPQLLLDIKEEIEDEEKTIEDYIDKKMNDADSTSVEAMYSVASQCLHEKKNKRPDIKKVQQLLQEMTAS

SMILES	Kd
COC(=O)[C@@]1(O)C[C@H]2O[C@]1(C)n1c3ccccc3c3c4c(c5c6ccccc6n2c5c31)C(=O)NC4 [K-252A]	0.009 µM (active)
Cc1c(F)cc(C(=O)NC2CC2)cc1-c1ccc(C(=O)NCC(C)(C)C)cn1 [LOSMAPIMOD]	> 30 µM (inactive)
Cn1cc(-c2ccc(F)c(C(F)(F)F)c2)nc1C1CCN(c2ncnc3[nH]ncc23)CC1 [LY-2584702]	> 30 µM (inactive)

target: Serine/threonine-protein kinase N2 (Homo sapiens, UniProt Q16513)
Sequence (Q16513 whole entry): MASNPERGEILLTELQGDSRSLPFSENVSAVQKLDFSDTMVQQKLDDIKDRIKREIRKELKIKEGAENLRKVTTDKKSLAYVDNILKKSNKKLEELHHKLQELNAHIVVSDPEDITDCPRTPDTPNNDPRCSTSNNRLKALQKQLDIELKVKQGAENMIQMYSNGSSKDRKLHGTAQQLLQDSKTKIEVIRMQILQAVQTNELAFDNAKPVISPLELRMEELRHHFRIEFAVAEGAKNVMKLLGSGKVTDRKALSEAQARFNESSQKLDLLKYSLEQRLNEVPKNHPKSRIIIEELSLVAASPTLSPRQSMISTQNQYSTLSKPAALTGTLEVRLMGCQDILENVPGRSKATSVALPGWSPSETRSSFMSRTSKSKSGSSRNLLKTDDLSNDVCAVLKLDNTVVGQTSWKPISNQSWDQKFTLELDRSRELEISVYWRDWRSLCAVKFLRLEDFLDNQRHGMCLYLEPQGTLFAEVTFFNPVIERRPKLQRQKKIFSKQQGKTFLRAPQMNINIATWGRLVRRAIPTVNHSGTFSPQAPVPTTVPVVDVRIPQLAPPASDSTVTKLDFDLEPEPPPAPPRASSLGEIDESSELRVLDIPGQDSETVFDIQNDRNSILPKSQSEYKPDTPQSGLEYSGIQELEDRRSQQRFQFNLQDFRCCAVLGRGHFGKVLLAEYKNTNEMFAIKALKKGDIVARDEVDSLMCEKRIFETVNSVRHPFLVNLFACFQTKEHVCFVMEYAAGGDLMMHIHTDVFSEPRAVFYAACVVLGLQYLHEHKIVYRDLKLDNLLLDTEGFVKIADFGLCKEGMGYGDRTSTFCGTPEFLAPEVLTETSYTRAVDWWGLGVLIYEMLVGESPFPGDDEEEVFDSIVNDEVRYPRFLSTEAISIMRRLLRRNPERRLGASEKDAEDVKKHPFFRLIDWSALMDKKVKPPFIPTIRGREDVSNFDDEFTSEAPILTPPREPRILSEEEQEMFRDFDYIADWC

SMILES	Kd
COC(=O)[C@@]1(O)C[C@H]2O[C@]1(C)n1c3ccccc3c3c4c(c5c6ccccc6n2c5c31)C(=O)NC4 [K-252A]	0.361 µM (active)
Cc1c(F)cc(C(=O)NC2CC2)cc1-c1ccc(C(=O)NCC(C)(C)C)cn1 [LOSMAPIMOD]	> 30 µM (inactive)
Cn1cc(-c2ccc(F)c(C(F)(F)F)c2)nc1C1CCN(c2ncnc3[nH]ncc23)CC1 [LY-2584702]	> 30 µM (inactive)

target: BMP-2-inducible protein kinase (Homo sapiens, UniProt Q9NSY1)
Sequence (Q9NSY1 whole entry): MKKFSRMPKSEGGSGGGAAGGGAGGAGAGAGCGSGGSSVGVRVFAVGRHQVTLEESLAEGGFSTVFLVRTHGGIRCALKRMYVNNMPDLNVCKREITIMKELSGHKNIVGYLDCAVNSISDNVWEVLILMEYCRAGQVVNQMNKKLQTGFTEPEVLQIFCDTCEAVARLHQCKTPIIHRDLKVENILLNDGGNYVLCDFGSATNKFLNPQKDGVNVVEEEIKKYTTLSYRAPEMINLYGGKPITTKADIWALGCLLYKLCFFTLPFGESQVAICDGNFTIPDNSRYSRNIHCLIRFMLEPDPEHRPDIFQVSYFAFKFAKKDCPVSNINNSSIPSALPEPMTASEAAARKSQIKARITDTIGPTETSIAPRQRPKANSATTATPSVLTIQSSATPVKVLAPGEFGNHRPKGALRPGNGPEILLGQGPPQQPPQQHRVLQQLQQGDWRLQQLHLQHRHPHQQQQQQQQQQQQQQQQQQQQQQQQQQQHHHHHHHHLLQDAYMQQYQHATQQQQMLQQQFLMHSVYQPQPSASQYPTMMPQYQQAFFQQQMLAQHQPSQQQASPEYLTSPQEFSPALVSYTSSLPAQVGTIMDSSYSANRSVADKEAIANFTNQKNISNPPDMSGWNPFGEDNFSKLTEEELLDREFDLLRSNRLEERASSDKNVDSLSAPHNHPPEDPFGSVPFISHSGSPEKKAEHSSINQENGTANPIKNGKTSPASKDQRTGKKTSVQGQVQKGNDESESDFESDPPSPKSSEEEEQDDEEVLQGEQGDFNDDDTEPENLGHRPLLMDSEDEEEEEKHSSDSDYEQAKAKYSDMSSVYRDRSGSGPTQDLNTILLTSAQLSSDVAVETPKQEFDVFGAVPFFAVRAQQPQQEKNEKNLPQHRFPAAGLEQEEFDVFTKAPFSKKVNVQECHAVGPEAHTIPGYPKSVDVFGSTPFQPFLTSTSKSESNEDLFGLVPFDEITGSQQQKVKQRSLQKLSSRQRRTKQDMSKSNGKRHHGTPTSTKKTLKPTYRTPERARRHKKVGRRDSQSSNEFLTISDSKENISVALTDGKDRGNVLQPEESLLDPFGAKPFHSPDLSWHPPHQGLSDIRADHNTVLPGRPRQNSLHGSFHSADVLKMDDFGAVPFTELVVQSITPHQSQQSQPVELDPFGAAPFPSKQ

SMILES	Kd
COC(=O)[C@@]1(O)C[C@H]2O[C@]1(C)n1c3ccccc3c3c4c(c5c6ccccc6n2c5c31)C(=O)NC4 [K-252A]	0.09 µM (active)
Cc1c(F)cc(C(=O)NC2CC2)cc1-c1ccc(C(=O)NCC(C)(C)C)cn1 [LOSMAPIMOD]	> 30 µM (inactive)
Cn1cc(-c2ccc(F)c(C(F)(F)F)c2)nc1C1CCN(c2ncnc3[nH]ncc23)CC1 [LY-2584702]	> 30 µM (inactive)

target: Tyrosine-protein kinase ABL1 (Homo sapiens, UniProt P00519)

SMILES	Kd
COC(=O)[C@@]1(O)C[C@H]2O[C@]1(C)n1c3ccccc3c3c4c(c5c6ccccc6n2c5c31)C(=O)NC4 [K-252A]	> 30 µM (inactive)
Cc1c(F)cc(C(=O)NC2CC2)cc1-c1ccc(C(=O)NCC(C)(C)C)cn1 [LOSMAPIMOD]	> 30 µM (inactive)
Cn1cc(-c2ccc(F)c(C(F)(F)F)c2)nc1C1CCN(c2ncnc3[nH]ncc23)CC1 [LY-2584702]	> 30 µM (inactive)

target: T4, Exosome RNA helicase MTR4 (Homo sapiens, UniProt P42285)
T4 sequence (P42285 whole entry): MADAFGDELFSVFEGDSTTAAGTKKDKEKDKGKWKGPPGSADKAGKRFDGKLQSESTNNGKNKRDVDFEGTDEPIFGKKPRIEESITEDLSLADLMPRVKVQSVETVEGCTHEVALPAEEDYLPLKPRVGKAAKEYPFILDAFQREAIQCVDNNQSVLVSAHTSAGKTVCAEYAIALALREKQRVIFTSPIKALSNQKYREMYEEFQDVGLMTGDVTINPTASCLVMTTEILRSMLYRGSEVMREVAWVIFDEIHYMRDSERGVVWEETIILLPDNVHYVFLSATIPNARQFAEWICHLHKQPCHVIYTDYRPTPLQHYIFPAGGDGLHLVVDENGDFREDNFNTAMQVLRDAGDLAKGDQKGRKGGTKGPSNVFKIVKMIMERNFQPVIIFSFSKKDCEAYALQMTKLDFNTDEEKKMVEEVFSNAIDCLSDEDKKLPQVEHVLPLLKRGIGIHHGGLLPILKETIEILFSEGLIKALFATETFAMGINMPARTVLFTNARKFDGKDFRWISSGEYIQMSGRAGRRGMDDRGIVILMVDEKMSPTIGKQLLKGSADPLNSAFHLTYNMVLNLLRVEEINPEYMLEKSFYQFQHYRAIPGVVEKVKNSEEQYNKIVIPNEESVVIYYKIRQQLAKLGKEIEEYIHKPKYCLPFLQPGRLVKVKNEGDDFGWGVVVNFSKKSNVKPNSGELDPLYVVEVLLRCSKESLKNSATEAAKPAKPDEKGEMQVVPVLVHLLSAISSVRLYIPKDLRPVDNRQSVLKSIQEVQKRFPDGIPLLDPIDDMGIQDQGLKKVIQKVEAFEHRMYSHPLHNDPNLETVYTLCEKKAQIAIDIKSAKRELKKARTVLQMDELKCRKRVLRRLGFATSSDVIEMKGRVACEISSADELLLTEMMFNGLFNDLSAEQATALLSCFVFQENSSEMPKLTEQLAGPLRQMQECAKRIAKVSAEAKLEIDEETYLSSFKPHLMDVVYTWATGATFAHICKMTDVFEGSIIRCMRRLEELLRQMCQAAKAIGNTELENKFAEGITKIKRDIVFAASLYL

SMILES	Kd
COC(=O)[C@@]1(O)C[C@H]2O[C@]1(C)n1c3ccccc3c3c4c(c5c6ccccc6n2c5c31)C(=O)NC4 [K-252A]	> 30 µM (inactive)
Cc1c(F)cc(C(=O)NC2CC2)cc1-c1ccc(C(=O)NCC(C)(C)C)cn1 [LOSMAPIMOD]	> 30 µM (inactive)
Cn1cc(-c2ccc(F)c(C(F)(F)F)c2)nc1C1CCN(c2ncnc3[nH]ncc23)CC1 [LY-2584702]	> 30 µM (inactive)

target: Ephrin type-A receptor 4 (Homo sapiens, UniProt P54764)
Sequence (P54764 whole entry): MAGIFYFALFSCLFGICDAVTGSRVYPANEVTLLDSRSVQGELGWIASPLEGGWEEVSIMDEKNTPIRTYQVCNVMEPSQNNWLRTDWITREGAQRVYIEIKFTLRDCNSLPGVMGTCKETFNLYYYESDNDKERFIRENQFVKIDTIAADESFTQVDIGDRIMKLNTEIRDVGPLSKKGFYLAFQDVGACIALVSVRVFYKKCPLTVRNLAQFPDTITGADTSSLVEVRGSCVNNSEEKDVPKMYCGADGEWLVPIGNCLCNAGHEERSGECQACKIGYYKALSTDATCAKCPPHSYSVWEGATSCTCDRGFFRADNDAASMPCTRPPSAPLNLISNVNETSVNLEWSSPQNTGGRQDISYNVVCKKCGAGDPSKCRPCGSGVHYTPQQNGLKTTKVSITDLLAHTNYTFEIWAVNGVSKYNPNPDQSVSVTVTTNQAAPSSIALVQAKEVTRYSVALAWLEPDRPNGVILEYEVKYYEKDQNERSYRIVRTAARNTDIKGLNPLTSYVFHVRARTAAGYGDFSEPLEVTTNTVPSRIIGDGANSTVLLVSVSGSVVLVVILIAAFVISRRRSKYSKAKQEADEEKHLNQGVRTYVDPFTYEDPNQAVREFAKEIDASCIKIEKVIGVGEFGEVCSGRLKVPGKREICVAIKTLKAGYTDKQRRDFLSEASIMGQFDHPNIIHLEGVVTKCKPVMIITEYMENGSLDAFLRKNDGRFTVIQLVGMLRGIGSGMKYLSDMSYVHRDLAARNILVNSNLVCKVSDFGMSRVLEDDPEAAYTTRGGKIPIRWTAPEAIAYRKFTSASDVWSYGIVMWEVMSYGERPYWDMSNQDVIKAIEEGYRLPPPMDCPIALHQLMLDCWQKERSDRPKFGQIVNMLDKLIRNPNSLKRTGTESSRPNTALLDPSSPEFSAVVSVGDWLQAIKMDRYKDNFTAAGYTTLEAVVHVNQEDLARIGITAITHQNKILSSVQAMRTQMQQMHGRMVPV

SMILES	Kd
COC(=O)[C@@]1(O)C[C@H]2O[C@]1(C)n1c3ccccc3c3c4c(c5c6ccccc6n2c5c31)C(=O)NC4 [K-252A]	> 30 µM (inactive)
Cc1c(F)cc(C(=O)NC2CC2)cc1-c1ccc(C(=O)NCC(C)(C)C)cn1 [LOSMAPIMOD]	> 30 µM (inactive)
Cn1cc(-c2ccc(F)c(C(F)(F)F)c2)nc1C1CCN(c2ncnc3[nH]ncc23)CC1 [LY-2584702]	> 30 µM (inactive)

target: Serine/threonine-protein kinase PAK 4 (Homo sapiens, UniProt O96013)
Sequence (O96013 whole entry): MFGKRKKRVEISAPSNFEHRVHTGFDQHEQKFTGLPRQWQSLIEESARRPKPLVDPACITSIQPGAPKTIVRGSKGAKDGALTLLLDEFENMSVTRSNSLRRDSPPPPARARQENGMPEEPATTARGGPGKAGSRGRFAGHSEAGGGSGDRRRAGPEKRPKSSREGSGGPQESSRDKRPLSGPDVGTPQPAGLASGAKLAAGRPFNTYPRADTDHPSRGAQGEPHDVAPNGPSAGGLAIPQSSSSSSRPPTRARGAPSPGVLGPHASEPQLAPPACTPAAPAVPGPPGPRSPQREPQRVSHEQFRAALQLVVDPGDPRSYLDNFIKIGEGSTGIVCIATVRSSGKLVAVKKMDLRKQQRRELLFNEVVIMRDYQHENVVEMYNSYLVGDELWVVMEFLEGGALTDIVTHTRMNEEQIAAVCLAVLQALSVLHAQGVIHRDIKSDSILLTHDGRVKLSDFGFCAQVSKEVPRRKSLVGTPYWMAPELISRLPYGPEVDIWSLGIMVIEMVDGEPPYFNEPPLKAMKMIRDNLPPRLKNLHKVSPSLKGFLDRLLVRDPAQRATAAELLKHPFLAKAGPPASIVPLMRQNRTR

SMILES	Kd
COC(=O)[C@@]1(O)C[C@H]2O[C@]1(C)n1c3ccccc3c3c4c(c5c6ccccc6n2c5c31)C(=O)NC4 [K-252A]	0.344 µM (active)
Cc1c(F)cc(C(=O)NC2CC2)cc1-c1ccc(C(=O)NCC(C)(C)C)cn1 [LOSMAPIMOD]	> 30 µM (inactive)
Cn1cc(-c2ccc(F)c(C(F)(F)F)c2)nc1C1CCN(c2ncnc3[nH]ncc23)CC1 [LY-2584702]	> 30 µM (inactive)

target: Tyrosine-protein kinase Lck (Homo sapiens, UniProt P06239)
Sequence (P06239 whole entry): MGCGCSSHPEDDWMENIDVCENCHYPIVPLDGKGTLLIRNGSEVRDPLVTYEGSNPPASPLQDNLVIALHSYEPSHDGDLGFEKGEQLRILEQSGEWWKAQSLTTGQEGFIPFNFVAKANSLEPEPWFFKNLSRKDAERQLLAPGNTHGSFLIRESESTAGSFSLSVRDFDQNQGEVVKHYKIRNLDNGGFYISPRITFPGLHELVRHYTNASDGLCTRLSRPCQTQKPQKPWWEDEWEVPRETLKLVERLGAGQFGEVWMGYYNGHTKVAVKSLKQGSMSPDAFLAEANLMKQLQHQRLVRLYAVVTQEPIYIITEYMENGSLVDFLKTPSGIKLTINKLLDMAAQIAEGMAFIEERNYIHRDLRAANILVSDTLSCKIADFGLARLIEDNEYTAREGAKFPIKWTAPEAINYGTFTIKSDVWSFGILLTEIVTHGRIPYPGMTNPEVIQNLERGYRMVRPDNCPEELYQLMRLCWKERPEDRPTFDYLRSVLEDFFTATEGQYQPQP

SMILES	Kd
COC(=O)[C@@]1(O)C[C@H]2O[C@]1(C)n1c3ccccc3c3c4c(c5c6ccccc6n2c5c31)C(=O)NC4 [K-252A]	> 30 µM (inactive)
Cc1c(F)cc(C(=O)NC2CC2)cc1-c1ccc(C(=O)NCC(C)(C)C)cn1 [LOSMAPIMOD]	> 30 µM (inactive)
Cn1cc(-c2ccc(F)c(C(F)(F)F)c2)nc1C1CCN(c2ncnc3[nH]ncc23)CC1 [LY-2584702]	> 30 µM (inactive)
